Results from the NIST ThermoML archive (doi:10.1016/j.jct.2015.05.006).

Assays:
[1] = xn = mol fraction of the nth substance listed; conditions: 97 kPa, Liquid, Vibrating tube method
[2] = relative permittivity at various frequencies (dimensionless); xn = mol fraction of the nth substance listed; conditions: 97 kPa, Liquid, Frequency=1 MHz, Parallel plate capacitor

COCCOC [1,2-dimethoxyethane] + CCCCCCCCCCCC
Conditions | mass density, [1] [kg/m3] | relative permittivity, [2]
288.15 K, x2 = 0 | 872.06 | 7.41
288.15 K, x2 = 0.05 | – | 6.6
288.15 K, x2 = 0.0501 | 856.95 | –
288.15 K, x2 = 0.101 | 843.87 | –
288.15 K, x2 = 0.1013 | – | 5.92
288.15 K, x2 = 0.2007 | – | 4.89
288.15 K, x2 = 0.2009 | 823.2 | –
288.15 K, x2 = 0.3011 | 807.11 | –
288.15 K, x2 = 0.3016 | – | 4.13
288.15 K, x2 = 0.402 | – | 3.57
288.15 K, x2 = 0.4022 | 794.1 | –
288.15 K, x2 = 0.5014 | 783.69 | –
288.15 K, x2 = 0.5015 | – | 3.15
288.15 K, x2 = 0.6016 | – | 2.81
288.15 K, x2 = 0.6019 | 774.99 | –
288.15 K, x2 = 0.6998 | – | 2.53
288.15 K, x2 = 0.7001 | 767.94 | –
288.15 K, x2 = 0.8049 | 761.62 | –
288.15 K, x2 = 0.8051 | – | 2.33
288.15 K, x2 = 0.9011 | 756.69 | –
288.15 K, x2 = 0.9019 | – | 2.16
288.15 K, x2 = 0.9514 | 754.42 | –
288.15 K, x2 = 0.9515 | – | 2.1
298.15 K, x2 = 0 | 861.17 | 7.07
298.15 K, x2 = 0.0499 | 846.45 | –
298.15 K, x2 = 0.05 | – | 6.31
298.15 K, x2 = 0.1013 | 833.6 | –
298.15 K, x2 = 0.102 | – | 5.66
298.15 K, x2 = 0.2014 | – | 4.71
298.15 K, x2 = 0.2016 | 813.45 | –
298.15 K, x2 = 0.3016 | – | 4
298.15 K, x2 = 0.3019 | 797.83 | –
298.15 K, x2 = 0.4011 | – | 3.48
298.15 K, x2 = 0.4015 | 785.4 | –
298.15 K, x2 = 0.5059 | 774.85 | –
298.15 K, x2 = 0.5061 | – | 3.06
298.15 K, x2 = 0.6021 | 766.88 | –
298.15 K, x2 = 0.6047 | – | 2.75
298.15 K, x2 = 0.7021 | 760.01 | –
298.15 K, x2 = 0.7033 | – | 2.51
298.15 K, x2 = 0.8048 | 754.06 | –
298.15 K, x2 = 0.8055 | – | 2.31
298.15 K, x2 = 0.9024 | – | 2.15
298.15 K, x2 = 0.9025 | 749.21 | –
298.15 K, x2 = 0.9491 | 747.21 | –
298.15 K, x2 = 0.9498 | – | 2.09
308.15 K, x2 = 0 | 850.13 | 6.75
308.15 K, x2 = 0.0495 | 835.93 | –
308.15 K, x2 = 0.05 | – | 6.04
308.15 K, x2 = 0.0982 | 824.01 | –
308.15 K, x2 = 0.1018 | – | 5.44
308.15 K, x2 = 0.2021 | 803.62 | –
308.15 K, x2 = 0.2026 | – | 4.53
308.15 K, x2 = 0.2982 | 789.08 | –
308.15 K, x2 = 0.3027 | – | 3.87
308.15 K, x2 = 0.4018 | 776.58 | –
308.15 K, x2 = 0.4043 | – | 3.38
308.15 K, x2 = 0.5024 | 766.76 | –
308.15 K, x2 = 0.505 | – | 3
308.15 K, x2 = 0.6046 | 758.6 | –
308.15 K, x2 = 0.6068 | – | 2.7
308.15 K, x2 = 0.6951 | 752.57 | –
308.15 K, x2 = 0.7013 | – | 2.48
308.15 K, x2 = 0.8031 | 746.52 | –
308.15 K, x2 = 0.806 | – | 2.28
308.15 K, x2 = 0.8975 | – | 2.14
308.15 K, x2 = 0.899 | 741.95 | –
308.15 K, x2 = 0.9502 | 739.81 | –
308.15 K, x2 = 0.9512 | – | 2.07
